Laboratory results reported in ChEMBL document CHEMBL1137721, “Modeling the activity of furin inhibitors using artificial neural network” (Eur J Med Chem, 2009).

Molecular target: Furin (Homo sapiens, UniProt P09958)
Experiment: Inhibition of human recombinant furin-dependent anthrax protective antigen processing

Sequence of Furin (P09958 whole entry): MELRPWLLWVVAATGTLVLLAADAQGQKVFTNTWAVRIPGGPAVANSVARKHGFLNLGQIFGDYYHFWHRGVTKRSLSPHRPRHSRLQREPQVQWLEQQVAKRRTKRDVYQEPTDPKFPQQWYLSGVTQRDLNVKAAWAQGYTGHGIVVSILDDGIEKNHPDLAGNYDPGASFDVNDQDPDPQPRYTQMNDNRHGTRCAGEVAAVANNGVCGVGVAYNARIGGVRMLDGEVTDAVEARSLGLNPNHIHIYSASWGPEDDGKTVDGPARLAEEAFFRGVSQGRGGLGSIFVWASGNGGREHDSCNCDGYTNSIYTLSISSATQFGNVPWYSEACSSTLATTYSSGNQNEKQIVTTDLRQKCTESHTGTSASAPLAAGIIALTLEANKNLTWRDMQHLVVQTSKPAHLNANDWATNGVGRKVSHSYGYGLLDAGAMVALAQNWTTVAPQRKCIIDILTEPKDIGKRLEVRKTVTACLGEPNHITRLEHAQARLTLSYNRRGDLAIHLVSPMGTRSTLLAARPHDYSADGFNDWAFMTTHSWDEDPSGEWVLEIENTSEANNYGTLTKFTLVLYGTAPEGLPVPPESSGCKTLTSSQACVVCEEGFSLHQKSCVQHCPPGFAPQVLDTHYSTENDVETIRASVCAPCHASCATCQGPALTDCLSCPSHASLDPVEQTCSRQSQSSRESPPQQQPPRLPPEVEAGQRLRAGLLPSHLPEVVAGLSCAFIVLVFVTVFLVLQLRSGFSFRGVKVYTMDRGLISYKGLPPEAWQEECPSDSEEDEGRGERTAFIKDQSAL

Structure (SMILES) | Ki [nM]
NC(N)=Nc1ccc(O[C@@H]2C[C@H](Oc3ccc(N=C(N)N)cc3N=C(N)N)[C@@H](N=C(N)N)C[C@H]2N=C(N)N)cc1 | 89
N=C(N)Nc1ccc(O[C@H]2C[C@@H](Oc3ccc(NC(=N)N)c4ccccc34)[C@H](NC(=N)N)C[C@@H]2NC(=N)N)c(N)c1 | 22
N=C(N)Nc1ccc(O[C@H]2C[C@@H](Oc3ccc(NC(=N)N)cn3)[C@H](NC(=N)N)C[C@@H]2NC(=N)N)nc1 | 42
N=C(N)N[C@H]1C[C@@H](NC(=N)N)[C@H](Oc2ccc3nc(N)[nH]c3c2)C[C@@H]1Oc1ccc2nc(N)[nH]c2c1 | 100000
NC(N)=Nc1ccc(O[C@H]2C[C@@H](Oc3ccc(N=C(N)N)c4ccccc34)[C@H](N=C(N)N)C[C@@H]2N=C(N)N)c2ccccc12 | 69
NC(N)=Nc1ccc(O[C@H]2C[C@@H](Oc3ccc(N=C(N)N)c4ccccc34)[C@H](N=C(N)N)C[C@@H]2N=C(N)N)c(N=C(N)N)c1 | 404
N=C(N)Nc1ccccc1NC(=O)O[C@H]1C[C@@H](OC(=O)Nc2ccccc2NC(=N)N)[C@H](NC(=N)N)C[C@@H]1NC(=N)N | 100000
N=C(N)Nc1ccc(O[C@H]2C[C@@H](Oc3ccc(NC(=N)N)c4ccccc34)[C@H](NC(=N)N)C[C@@H]2NC(=N)N)cc1 | 6
NC(N)=Nc1cccc(NC(=O)O[C@H]2C[C@@H](OC(=O)Nc3cccc(N=C(N)N)c3)[C@H](N=C(N)N)C[C@@H]2N=C(N)N)c1 | 1770
N=C(N)Nc1ccc(O[C@H]2C[C@@H](Oc3ccc(NC(=N)N)cc3NC(=N)N)[C@H](NC(=N)N)C[C@@H]2NC(=N)N)c(NC(=N)N)c1 | 169
NC(N)=Nc1ccc(N[C@H]2C[C@@H](N=C(N)N)[C@H](Oc3ccc(N=C(N)N)cc3)C[C@@H]2Oc2ccc(N=C(N)N)cc2)cc1 | 46
N=C(N)Nc1ccc(NC(=O)O[C@H]2C[C@@H](OC(=O)Nc3ccc(NC(=N)N)cc3)[C@H](NC(=N)N)C[C@@H]2NC(=N)N)cc1 | 812
NC(N)=Nc1cccnc1O[C@H]1C[C@@H](Oc2ncccc2N=C(N)N)[C@H](N=C(N)N)C[C@@H]1N=C(N)N | 100000
NC(N)=Nc1ccc(O[C@H]2C[C@@H](Oc3ccc(N=C(N)N)cc3)[C@H](N=C(N)N)C[C@@H]2N=C(N)N)cc1 | 12
NC(N)=Nc1cnccc1O[C@H]1C[C@@H](Oc2ccncc2N=C(N)N)[C@H](N=C(N)N)C[C@@H]1N=C(N)N | 100000
NC(N)=N[C@H]1C[C@@H](N=C(N)N)[C@H](Oc2ccccn2)C[C@@H]1Oc1ccccn1 | 100000
NC(N)=Nc1ccccc1O[C@H]1C[C@@H](Oc2ccccc2N=C(N)N)[C@H](N=C(N)N)C[C@@H]1N=C(N)N | 100000
NC(N)=Nc1ccc(N[C@H]2C[C@@H](N=C(N)N)[C@H](Oc3ccc(N=C(N)N)c4ccccc34)C[C@@H]2Oc2ccc(N=C(N)N)c3ccccc23)c2ccccc12 | 423
